Experimental data: patent publication US6680311B1, “Cryptophycin compounds” (Eli Lilly and Company, priority 1996, dated 2004)
Counter-ions that a name gives are not always drawn.

What was measured:
Type in all cases: physicochemical
[1] = Stability in parenteral formulation; details: formulation 6 of Table 4, up to 3 weeks, preliminary
[2] = Solubility in excipient / parenteral vehicles; details: Propylene Glycol 15 % v/v, Polyethylele Glycol 3000 20 % v/v, volume adjusted 0.05 M acetate buffer
[3] = Aqueous solubility and stability at pH 4-8
Protocol: A comparison of stability characteristics between 1 and 12 in aqueous Ph ranging from 4-8 was determined at room temperature for 6 hours.

COc1ccc(C[C@H]2NC(=O)/C=C/C[C@@H]([C@H](C)[C@@H](OC(=O)CN)[C@@H](Cl)c3ccccc3)OC(=O)[C@H](CC(C)C)OC(=O)C(C)(C)CNC2=O)cc1Cl [Compound 12, Cryptophycin 55 Glycinate Hydrochloride Salt]
stability in formulation 6 [1]: acceptable stability | Comparative solubility, vehicle 2 [2]: >2000 µg/mL | course of aqueous solubility over the pH range studied ([3]; aqueous pH 4-8, room temperature, 6 hours): remained substantially steady | stability in an aqueous environment ([3]; physiological pH range, over longer periods of time): better stability
